Laboratory results from paper PMC3188285 (Journal of Medicinal Chemistry, 2011).

Key:
[1] = system: HeLa cells; test: Cytotoxicity assay; type: cell-based, human; settings: 10, 1, 0.1 and 0.01 μM; 24 or 48 h; triplicate
[2] = system: CREBBP; type: binding, human; settings: from ΔTm^obs, compound 100 μM

`CCOc1cc(-c2c(C)noc2C)cc(C(C)O)c1` (racemic) [Compound 4d, (RS)-1-(3-(3,5-Dimethylisoxazol-4-yl)-5-ethoxyphenyl)ethanol] was tested, and the “cytotoxicity in HeLa cells (MTT)” value [1] was “did not show any cytotoxicity”.

`Cc1noc(C)c1-c1ccc2c(c1)CN(C)C(=O)N2` [Compound 1, 6-(3,5-dimethylisoxazol-4-yl)-3-methyl-3,4-dihydroquinazolin-2(1H)-one] was tested, and the “cytotoxicity in HeLa cells (MTT)” value [1] was “significant cytotoxicity”.

In the case of `CCOc1cc(C(=O)O)cc(-c2c(C)noc2C)c1` [Compound 4b, 3-(3,5-Dimethylisoxazol-4-yl)-5-ethoxybenzoic acid], the “selectivity for CREBBP over the BET bromodomains” value [2] is reported as “modest” and the “cytotoxicity in HeLa cells (MTT)” value [1] is reported as “did not show any cytotoxicity”.
